Measured values reported in patent publication US12479849B2, “EGFR inhibitors for the treatment of cancer” (Hoffmann-La Roche Inc., priority 2019, dated 2025).
Structures can show the parent of a compound that is named as a salt.

What follows are compounds tested against T1, EGFR TMLRCS (Homo sapiens, UniProt P00533, C797S/L858R/T790M) (assay: HTRF Phospho EGFR TMLRCS Assay (Cellular)). Conditions: BaF3-TMLRCS cell line, 4 hours incubation, Phospho-EGFR HTRF readout.
T1 construct: host or cells: BaF3-TMLRCS (Ba/F3 cells, kept under puromycin selection)
T1 sequence (P00533 25-1210 T790M/C797S/L858R): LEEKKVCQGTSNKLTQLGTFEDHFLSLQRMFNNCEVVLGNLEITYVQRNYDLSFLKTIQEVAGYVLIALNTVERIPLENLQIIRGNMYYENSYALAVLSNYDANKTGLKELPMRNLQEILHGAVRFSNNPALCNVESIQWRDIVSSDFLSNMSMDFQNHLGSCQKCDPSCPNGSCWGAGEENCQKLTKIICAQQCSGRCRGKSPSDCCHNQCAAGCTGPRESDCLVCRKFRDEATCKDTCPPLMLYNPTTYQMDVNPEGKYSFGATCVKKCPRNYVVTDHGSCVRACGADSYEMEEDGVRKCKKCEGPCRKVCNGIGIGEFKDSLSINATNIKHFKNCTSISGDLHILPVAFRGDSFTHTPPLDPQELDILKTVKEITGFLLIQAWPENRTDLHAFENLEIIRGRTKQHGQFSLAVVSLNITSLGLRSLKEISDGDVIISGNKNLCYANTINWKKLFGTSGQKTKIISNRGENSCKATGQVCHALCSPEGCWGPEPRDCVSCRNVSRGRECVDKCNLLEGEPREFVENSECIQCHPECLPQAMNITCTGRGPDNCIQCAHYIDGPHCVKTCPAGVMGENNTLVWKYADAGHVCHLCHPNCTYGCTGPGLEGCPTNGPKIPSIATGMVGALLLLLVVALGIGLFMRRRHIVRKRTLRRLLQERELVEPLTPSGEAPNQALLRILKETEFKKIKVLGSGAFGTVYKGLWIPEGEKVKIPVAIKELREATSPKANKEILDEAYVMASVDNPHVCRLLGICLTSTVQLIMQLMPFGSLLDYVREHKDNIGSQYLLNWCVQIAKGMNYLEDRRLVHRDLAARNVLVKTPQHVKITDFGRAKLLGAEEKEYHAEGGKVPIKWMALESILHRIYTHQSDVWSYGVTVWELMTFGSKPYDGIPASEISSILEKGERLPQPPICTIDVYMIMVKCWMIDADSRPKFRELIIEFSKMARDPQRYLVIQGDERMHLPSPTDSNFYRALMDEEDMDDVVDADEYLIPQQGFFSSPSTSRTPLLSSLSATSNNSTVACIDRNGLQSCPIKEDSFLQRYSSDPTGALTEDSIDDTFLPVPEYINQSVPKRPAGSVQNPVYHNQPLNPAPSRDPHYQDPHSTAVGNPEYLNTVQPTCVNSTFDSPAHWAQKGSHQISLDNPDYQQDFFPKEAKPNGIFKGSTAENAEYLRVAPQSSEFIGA
Assay type: cell-based
Experimental: HTRF Phospho EGFR TMLRCS Assay (Cellular)
BaF3-TMLRCS cell line were obtained from Crownbio (San Diego, CA, USA). Cells were maintained at 37° C., 5% CO2 in RPMI ATCC (Gibco 31870)+2 mM Glutamine+0.5 μg/ml Puromycin supplemented with 10% fetal bovine serum (FBS) (Gibco).
Cells are transferred as above to Greiner Bio-One, Nr. 784-08 micro-titerplate at 20000 cells/well in 12.5 μl of growth medium/well after the plates had been pre-filled with 12.5 nl of DMSO solutions of the to be tested compounds (in dose response) or DMSO only. After spinning the plates at 300×g for 30 seconds the cells were incubated for 4 hours at 37 C, 5% CO2, 95% humidity. The cells were lysed by adding to the compound mix 4 μl/well of the supplemented lysis buffer (Cis-bio, Phospho-EGFR HTRF kit, 64EG1PEH), followed by incubation for 30 min at room temperature with shaking (400 rpm). The plates were then frozen and stored overnight at −80 C. On the next day and after thawing the plates, 4 μl of a mixture of anti-Phospho-EGFR Cryptate and of anti-Phospho-EGFR-d2 antibody solutions prepared in the supplied detection buffer was added to each well. The lidded plates were then incubated for 4 h at room temperature before reading the fluorescence emission at 616 and 665 nm using an Envision reader (Perkin Elmer). Data was analyzed in similar fashion as above using the normalized ratio of the 665 to 616 signals multiplied by 10000.
With CN(CCN1CCC(CO)CC1)c1ccc(-c2cc(Cl)c3cn(C(C(=O)Nc4nccs4)c4ncn5c4C[C@@H](F)C5)nc3c2Cl)cc1 (stereo partly shown) [Example 79] the IC50 was 7 nM. CCN1CC[C@@H](c2ccc(-c3cc(Cl)c4cn(C(C(=O)Nc5nccs5)c5ncn6c5C[C@@H](F)C6)nc4c3Cl)cc2)[C@H](F)C1 (mixture of isomers) [Example 38, 2-[4,7-Dichloro-6-[4-[rac-(3S,4S)-1-ethyl-3-fluoro-4-piperidyl]phenyl]indazol-2-yl]-2-[(6R)-6-fluoro-6,7-dihydro-5H-pyrrolo[1,2-c]imidazol-1-yl]-N-thiazol-2-yl-acetamide OR 2-[4,7-Dichloro-6-[4-[rac-(3R,4R)-1-ethyl-3-fluoro-4-piperidyl]phenyl]indazol-2-yl]-2-[(6R)-6-fluoro-6,7-dihydro-5H-pyrrolo[1,2-c]imidazol-1-yl]-N-thiazol-2-yl-acetamide] gave an IC50 of 10 nM. Work on O=C(Nc1nccs1)C(c1ncn2c1C[C@@H](F)C2)n1cc2c(Cl)cc(-c3ccc(OCCN4CCC5(CC4)CC(O)C5)cc3)c(Cl)c2n1 (mixture of isomers) [Example 92, rac-2-(4,7-Dichloro-6-(4-(2-(2-hydroxy-7-azaspiro[3.5]nonan-7-yl)ethoxy)phenyl)-2H-indazol-2-yl)-2-((R)-6-fluoro-6,7-dihydro-5H-pyrrolo[1,2-c]imidazol-1-yl)-N-(thiazol-2-yl)acetamide] yielded an IC50 of 13 nM. With CN(C)CCOc1ccc(-c2cc(Cl)c3cn(C(C(=O)Nc4nccs4)c4ncn5c4C[C@@H](F)C5)nc3c2Cl)cc1 (mixture of isomers) [Example 34, 2-[4,7-Dichloro-6-[4-[2-(dimethylamino)ethoxy]phenyl]indazol-2-yl]-2-[rac-(6R)-6-fluoro-6,7-dihydro-5H-pyrrolo[1,2-c]imidazol-1-yl]-N-(1,3-thiazol-2-yl)acetamide] the IC50 was 6 nM. For Cc1cc(-c2ccc(N3CCOCC3)cc2)c(Cl)c2nn(C(C(=O)Nc3nccs3)c3ncn4c3CCC4)cc12 (stereo not shown) [Example 126, 2-(7-Chloro-4-methyl-6-(4-morpholinophenyl)-2H-indazol-2-yl)-2-(6,7-dihydro-5H-pyrrolo[1,2-c]imidazol-1-yl)-N-(thiazol-2-yl)acetamide], the IC50 was 9 nM. With Cc1cc(-c2ccc(C3CCN(CC(C)F)CC3)cc2)c(Cl)c2nn(C(C(=O)Nc3nccs3)c3ncn4c3C[C@@H](F)C4)cc12 (mixture of isomers) [Example 131, rac-2-(7-Chloro-6-(4-(1-(2-fluoropropyl)piperidin-4-yl)phenyl)-4-methyl-2H-indazol-2-yl)-2-((R)-6-fluoro-6,7-dihydro-5H-pyrrolo[1,2-c]imidazol-1-yl)-N-(thiazol-2-yl)acetamide] the IC50 was 192 nM. Cc1cc(-c2ccc(N3CCOCC3)cc2)c(Cl)c2nn(C(C(=O)Nc3nccs3)c3ncn4c3C[C@@H](F)C4)cc12 (stereo partly drawn) [Example 128, 2-(7-Chloro-4-methyl-6-(4-morpholinophenyl)-2H-indazol-2-yl)-2-((R)-6-fluoro-6,7-dihydro-5H-pyrrolo[1,2-c]imidazol-1-yl)-N-(thiazol-2-yl)acetamide] gave an IC50 of 5 nM. Compound O=C(Nc1nccs1)C(c1ncn2c1C[C@@H](F)C2)n1cc2c(Cl)cc(-c3ccc(CCCN4CCC(CO)CC4)cc3)c(Cl)c2n1 (mixture of isomers) [Example 47, rac-2-(4,7-Dichloro-6-(4-(3-(4-(hydroxymethyl)piperidin-1-yl)propyl)phenyl)-2H-indazol-2-yl)-2-((R)-6-fluoro-6,7-dihydro-5H-pyrrolo[1,2-c]imidazol-1-yl)-N-(thiazol-2-yl)acetamide] has an IC50 of 8 nM. CN(CCN1CC(O)C1)c1ccc(-c2cc(Cl)c3cn(C(C(=O)Nc4nccs4)c4ncn5c4C[C@@H](F)C5)nc3c2Cl)cc1 (stereo partly shown) [Example 90] was tested, and the IC50 was 12 nM. Work on O=C(Nc1nccs1)C(c1ncn2c1C[C@@H](F)C2)n1cc2c(Cl)cc(-c3ccc(C4CCNCC4)cc3)c(Cl)c2n1 (mixture of isomers) [Example 30, 2-[4,7-Dichloro-6-(4-piperidin-4-ylphenyl)indazol-2-yl]-2-[rac-(6R)-6-fluoro-6,7-dihydro-5H-pyrrolo[1,2-c]imidazol-1-yl]-N-(1,3-thiazol-2-yl)acetamide hydrochloride] yielded an IC50 of 33 nM. In the case of O=C(Nc1nccs1)C(c1ncn2c1C[C@@H](F)C2)n1cc2c(Cl)cc(-c3ccc(CCN4CCC(O)CC4)cc3)c(Cl)c2n1 (mixture of isomers) [Example 64, rac-2-(4,7-Dichloro-6-(4-(2-(4-hydroxypiperidin-1-yl)ethyl)phenyl)-2H-indazol-2-yl)-2-((R)-6-fluoro-6,7-dihydro-5H-pyrrolo[1,2-c]imidazol-1-yl)-N-(thiazol-2-yl)acetamide], the IC50 is reported as 7 nM. Compound O=C(Nc1nccs1)C(c1ncn2c1CCC2)n1cc2c(Cl)cc(-c3ccc(C4CCN(CCF)CC4)cc3)c(Cl)c2n1 (stereo not shown) [Example 103, 2-(4,7-Dichloro-6-(4-(1-(2-fluoroethyl)piperidin-4-yl)phenyl)-2H-indazol-2-yl)-2-(6,7-dihydro-5H-pyrrolo[1,2-c]imidazol-1-yl)-N-(thiazol-2-yl)acetamide] has an IC50 of 20 nM. In the case of CCN1CCCC2(C1)CN(c1ccc(-c3cc(Cl)c4cn(C(C(=O)Nc5nccs5)c5ncn6c5C[C@@H](F)C6)nc4c3Cl)cc1)C2 (stereo partly drawn) [Example 73, 2-(4,7-Dichloro-6-(4-(6-ethyl-2,6-diazaspiro[3.5]nonan-2-yl)phenyl)-2H-indazol-2-yl)-2-((R)-6-fluoro-6,7-dihydro-5H-pyrrolo[1,2-c]imidazol-1-yl)-N-(thiazol-2-yl)acetamide], the IC50 is reported as 10 nM. In the case of CN(CCN1CCC(O)CC1)c1ccc(-c2cc(Cl)c3cn(C(C(=O)Nc4nccs4)c4ncn5c4C[C@@H](F)C5)nc3c2Cl)cc1 (stereo partly shown) [Example 80], the IC50 is reported as 8 nM. For CC(O)CN1CCN(c2ccc(-c3cc(Cl)c4cn(C(C(=O)Nc5nccs5)c5ncn6c5C[C@@H](F)C6)nc4c3Cl)cc2)CC1 (mixture of isomers) [Example 71, rac-2-(4,7-Dichloro-6-(4-(4-(2-hydroxypropyl)piperazin-1-yl)phenyl)-2H-indazol-2-yl)-2-((R)-6-fluoro-6,7-dihydro-5H-pyrrolo[1,2-c]imidazol-1-yl)-N-(thiazol-2-yl)acetamide], the IC50 was 8 nM. For Cc1cc(-c2ccc(N3CCOCC3)nc2)c(C)c2nn(C(C(=O)Nc3nccs3)c3ncn4c3C[C@@H](F)C4)cc12 (stereo partly drawn) [Example 124, 2-(4,7-Dimethyl-6-(6-morpholinopyridin-3-yl)-2H-indazol-2-yl)-2-((R)-6-fluoro-6,7-dihydro-5H-pyrrolo[1,2-c]imidazol-1-yl)-N-(thiazol-2-yl)acetamide], the IC50 was 5 nM. With COCCNCCc1ccc(-c2cc(Cl)c3cn(C(C(=O)Nc4nccs4)c4ncn5c4C[C@@H](F)C5)nc3c2Cl)cc1 (mixture of isomers) [Example 101, rac-2-(4,7-Dichloro-6-(4-(24(2-methoxyethyl)amino)ethyl)phenyl)-2H-indazol-2-yl)-2-((R)-6-fluoro-6,7-dihydro-5H-pyrrolo[1,2-c]imidazol-1-yl)-N-(thiazol-2-yl)acetamide] the IC50 was 10 nM. For O=C(Nc1nccs1)C(c1ncn2c1C[C@@H](F)C2)n1cc2c(Cl)cc(-c3ccc(CN4CCC(F)(CO)CC4)cc3)c(Cl)c2n1 (stereo partly drawn) [Example 65, 2-(4,7-Dichloro-6-(4-((4-fluoro-4-(hydroxymethyl)piperidin-1-yl)methyl)phenyl)-2H-indazol-2-yl)-2-((R)-6-fluoro-6,7-dihydro-5H-pyrrolo[1,2-c]imidazol-1-yl)-N-(thiazol-2-yl)acetamide], the IC50 was 4 nM. CN1CCN(Cc2ccc(-c3cc(Cl)c4cn(C(C(=O)Nc5nccs5)c5ncn6c5C[C@@H](F)C6)nc4c3Cl)cc2)CC1 (mixture of isomers) [Example 96, rac-2-(4,7-Dichloro-6-(4-((4-methylpiperazin-1-yl)methyl)phenyl)-2H-indazol-2-yl)-2-((R)-6-fluoro-6,7-dihydro-5H-pyrrolo[1,2-c]imidazol-1-yl)-N-(thiazol-2-yl)acetamide] was tested, and the IC50 was 6 nM. CN(Cc1ccc(-c2cc(Cl)c3cn(C(C(=O)Nc4nccs4)c4ncn5c4C[C@@H](F)C5)nc3c2Cl)cc1)C1CCC(O)CC1 (mixture of isomers) [Example 94, rac-2-(4,7-Dichloro-6-(4-(((4-hydroxycyclohexyl)(methyl)amino)methyl)phenyl)-2H-indazol-2-yl)-2-((R)-6-fluoro-6,7-dihydro-5H-pyrrolo[1,2-c]imidazol-1-yl)-N-(thiazol-2-yl)acetamide] gave an IC50 of 4 nM. O=C(Nc1nccs1)C(c1ncn2c1C[C@@H](F)C2)n1cc2c(Cl)cc(-c3ccc(C45CC(CN6CCC(CO)CC6)(C4)C5)cc3)c(Cl)c2n1 (mixture of isomers) [Example 50, rac-2-(4,7-Dichloro-6-(4-(3-((4-(hydroxymethyl)piperidin-1-yl)methyl)bicyclo[1.1.1]pentan-1-yl)phenyl)-2H-indazol-2-yl)-2-((R)-6-fluoro-6,7-dihydro-5H-pyrrolo[1,2-c]imidazol-1-yl)-N-(thiazol-2-yl)acetamide] gave an IC50 of 12 nM. Work on O=C(Nc1nccs1)C(c1ncn2c1C[C@@H](F)C2)n1cc2c(Cl)cc(-c3ccc(CCN4CCC(CO)C4)cc3)c(Cl)c2n1 (mixture of isomers) [Example 52, rac-2-(4,7-Dichloro-6-(4-(2-(3-(hydroxymethyl)pyrrolidin-1-yl)ethyl)phenyl)-2H-indazol-2-yl)-2-((R)-6-fluoro-6,7-dihydro-5H-pyrrolo[1,2-c]imidazol-1-yl)-N-(thiazol-2-yl)acetamide] yielded an IC50 of 6 nM.
